Laboratory results reported in US20130178413A1, “HCV NS3 PROTEASE INHIBITORS” (priority 2010, published 2013).
Like-named read-outs stand apart in the source and are kept apart here.

Assays:
NS3/4A protease gt 1b = NS3/4A protease gt 1b (Hepatitis C virus genotype 1b, UniProt P26663); experiment: HCV NS3 protease time-resolved fluorescence (TRF) assay, NS3/4A inhibitory activity (Ki), gt 1b; type: biochemical; details: genotype 1b NS3/4A; read-out: Enzyme Activity gt 1b Ki
Method: (§1) The HCV NS3 protease inhibitory activity of the present compounds may be tested using assays known in the art. One such assay is HCV NS3 protease time-resolved fluorescence (TRF) assay as described below and in International Patent Application Publication WO2006/102087. Other examples of such assays are described in e.g., International Patent Application Publication WO2005/046712. HCV NS3 protease inhibitors, such as those described herein have a Ki less than 50 μM, such as less than 10 μM, and less than 100 nM. Ki is determined by an NS3 protease assay. The assay is performed in a final volume of 100 μl in assay buffer containing 50 mM HEPES, pH 7.5, 150 mM NaCl, 15% glycerol, 0.15% TRITON X-100, 10 mM DTT, and 0.1% PEG 8000. NS3 protease is pre-incubated with various concentrations of inhibitors in DMSO for 30 minutes. The reaction is initiated by adding the TRF peptide substrate (final concentration 100 nM). NS3 mediated hydrolysis of the substrate is quenched after 1 hour at room temperature with 100 μl of 500 mM MES, pH 5.5. Product fluorescence is detected using either a VICTOR V2 or FUSION fluorophotometer (Perkin Elmer Life and Analytical Sciences) with excitation at 340 nm and emission at 615 nm with a 400 μs delay. Testing concentrations of different enzyme forms are selected to result in a signal to background ratio (S/B) of 10-30. IC50 values are derived using a standard four-parameter fit to the data. Ki values are derived from IC50 values using the following formula,
(§2) IC50=Ki(1+[S]/KM), Eqn (1),
(§3) where [S] is the concentration of substrate peptide in the reaction and KM is the Michaelis constant. See P. Gallinari et al., 38 BIOCHEM. 5620-32 (1999); P. Gallinari et al., 72 J. VIROL. 6758-69 (1998); M. Taliani et al., 240 ANAL. BIOCHEM. 60-67 (1996).
(§4) One such assay is HCV NS3 protease time-resolved fluorescence (TRF) assay as described below and in Mao et al., Anal Biochem. 373:1-8, 2008 and International Patent Application Publication WO 2006/102087. A NS3 protease assay can be performed, for example, in a final volume of 100 μl assay buffer containing 50 mM HEPES, pH 7.5, 150 mM NaCl, 15% glycerol, 0.15% TRITON X-100, 10 mM DTT, and 0.1% PEG 8000. NS3 and NS4A protease is pre-incubated with various concentrations of inhibitors in DMSO for 30 minutes. The reaction is initiated by adding the TRF peptide substrate (final concentration 100 nM). NS3 mediated hydrolysis of the substrate is quenched after 1 hour at room temperature with 100 μl of 500 mM MES, pH 5.5. Product fluorescence is detected using either a VICTOR V2 or FUSION fluorophotometer (Perkin Elmer Life and Analytical Sciences) with excitation at 340 nm and emission at 615 nm with a 400 μs delay. Testing concentrations of different enzyme forms are selected to result in a signal to background ratio (S/B) of 10-30. IC50 values are derived using a standard four-parameter fit to the data. Ki values are derived from IC50 values using the following formula,
as §3, with “(1996); Mao et al., Analytical Biochemistry 373: 1-8, 2008. Measuring Compound Inhibitory Potency (Replicon EC50 (nM))” for “(1996).”

[1] = molecular target: NS3/4A protease gt 1b A156V (Hepatitis C virus genotype 1b, UniProt P26663, A1182V); experiment: HCV NS3 protease time-resolved fluorescence (TRF) assay, NS3/4A inhibitory activity (Ki), gt 1b A156V mutant; type: biochemical, hepatitis C virus (HCV)
Method: as §1, §2, §3, §4
as §3, with “(1996); Mao et al., Analytical Biochemistry 373: 1-8, 2008. Measuring Compound Inhibitory Potency (Replicon EC50 (nM))” for “(1996).”

NS3/4A protease gt 3a = NS3/4A protease gt 3a (Hepatitis C virus genotype 3a, UniProt Q81258); experiment: HCV NS3 protease time-resolved fluorescence (TRF) assay, NS3/4A inhibitory activity (Ki), gt 3a; type: biochemical; details: genotype 3a NS3/4A; read-out: Enzyme Activity gt 3a Ki
Method: as §1, §2, §3, §4
as §3, with “(1996); Mao et al., Analytical Biochemistry 373: 1-8, 2008. Measuring Compound Inhibitory Potency (Replicon EC50 (nM))” for “(1996).”

gt 1b Replicon = experiment: HCV replicon assay, compound inhibitory potency (Replicon EC50); type: cell-based; details: Hepatitis C virus, GT1B
Method: Measurement of inhibition by compounds was performed using the HCV replicon system. Several different replicons encoding different HCV genotypes or mutations were used. In addition, potency measurements were made using different formats of the replicon assay, including different ways of measurements and different plating formats. See Jan M. Vrolijk et al., A replicons-based bioassay for the measurement of interferons in patients with chronic hepatitis C, 110 J. VIROLOGICAL METHODS 201 (2003); Steven S. Carroll et al., Inhibition of Hepatitis C Virus RNA Replication by 2′-Modified Nucleoside Analogs, 278(14) J. BIOLOGICAL CHEMISTRY 11979 (2003). However, the underlying principles are common to all of these determinations, and are outlined below.
Stable neomycin phosphotransferase encoding replicon-harboring cell lines were used, so all cell lines were maintained under G418 selection prior to the assay. In some cases the cell lines encoded a luciferase:Neor fusion and could be assayed either directly by determination of RNA copy number, or indirectly through measurement of the luciferase activity.
To initiate an assay, replicon cells were plated in the presence of a dilution series of test compound in the absence of G418. Typically, the assays were performed in a 96-well plate format for manual operation, or a 384 well plate in an automated assay. Replicon cells and compound were incubated for 24-48 hours, depending on the assay. At the end of the assay, cells are washed free of media and compound and then lysed. For direct quantitation, RNA levels were measured by ^32P-probe hybridization and protection, or in a TAQMAN based assay and normalized to cellular cyclophilin A RNA levels. In some cases, luciferase activity was measured using a conventional luciferase assay. In all cases EC50 determinations were calculated as a percent of a DMSO control by fitting the data to a four parameter fit function.

[2] = 10% Fetal Bovine Serum, read-out: gt 1b Replicon EC50 10% FBS
[3] = 50% Normal Human Serum, read-out: gt 1b Replicon EC50 50% NHS

SMILES | Ki (NS3/4A protease gt 1b) | Ki [1] | Ki (NS3/4A protease gt 3a) | EC50 (gt 1b Replicon; [2]) | EC50 (gt 1b Replicon; [3])
C=C[C@@H]1C[C@]1(NC(=O)[C@@H]1C[C@@H]2CN1C(=O)[C@H](C1CCCC1)NC(=O)O[C@]1(C)C[C@H]1CCCCCc1nc3cccc(OC)c3nc1O2)C(=O)NS(=O)(=O)C1(C)CC1 [Example I-1, (1R,18R,20R,24S,27S)-24-Cyclopentyl-6-methoxy-20-methyl-N-[(1R,2S)-1-({[(1-methylcyclopropyl)sulfonyl]amino}carbonyl)-2-vinylcyclopropyl]-22,25-dioxo-2,21-dioxa-4,11,23,26-tetraazapentacyclo[24.2.1.0^3,12.0^5,10.0^18,20]nonacosa-3,5,7,9,11-pentaene-27-carboxamide] | 0.04 nM | 1 nM | 1.6 nM | 2 nM | 7.6 nM
C=C[C@@H]1C[C@]1(NC(=O)[C@@H]1C[C@@H]2CN1C(=O)[C@H](C1CCCC1)NC(=O)O[C@]1(C)CCC[C@H]1CCCCCc1nc3ccc(OC)cc3cc1O2)C(=O)NS(=O)(=O)C1CC1 [Example I-3, (1R,18R,22R,26S,29S)-26-Cyclopentyl-N-((1R,2S)-1-{[(cyclopropylsulfonyl)amino]carbonyl}-2-vinylcyclopropyl)-7-methoxy-22-methyl-24,27-dioxo-2,23-dioxa-11,25,28-triazapentacyclo[26.2.1.0^3,12.0^5,10.0^18,22]hentriaconta-3(12),4,5,7,9,10-hexaene-29-carboxamide] | 0.03 nM | 3.3 nM | 0.5 nM | 6 nM | 23 nM
C=C[C@@H]1C[C@]1(NC(=O)[C@@H]1C[C@@H]2CN1C(=O)[C@H](C1CCCC1)NC(=O)O[C@]1(C)C[C@H]1CC/C=C/Cc1c(nc3ccccc3c1O)O2)C(=O)NS(=O)(=O)C1CC1 [Example I-4, (1R,14E,18R,20R,24S,27S)-24-Cyclopentyl-N-((1R,2S)-1-{[(cyclopropylsulfonyl)amino]carbonyl}-2-vinylcyclopropyl)-11-hydroxy-20-methyl-22,25-dioxo-2,21-dioxa-4,23,26-triazapentacyclo[24.2.1.0^3,12.0^5,10.0^18,20]nonacosa-3,5,7,9,11,14-hexaene-27-carboxamide] | 0.04 nM | 0.9 nM | 0.7 nM | 7 nM | 17 nM
C=C[C@@H]1C[C@]1(NC(=O)[C@@H]1C[C@@H]2CN1C(=O)[C@H](C(C)(C)C)NC(=O)O[C@]1(C)C[C@H]1CCC/C=C/c1cccc3c1CN(C3)C(=O)O2)C(=O)NS(=O)(=O)C1CC1 [Example I-5, (1aR,5S8S,10R,19E,23aR)-5-tert-butyl-N-{(1R,2S)-1-[(cyclopropylsulfonyl)carbamoyl]-2-ethenylcyclopropyl}-1a-methyl-3,6,12-trioxo-1a,3,4,5,6,9,10,14,21,22,23,23a-dodecahydro-1H,8H-7,10:13,15-dimethanocycloproa[n][4,13,2,8,11]benzodioxatriazacyclodocosine-8(12H)-carboxamide] | 0.02 nM | 1.3 nM | 1 nM | 3 nM | 22 nM
C=C[C@@H]1C[C@]1(NC(=O)[C@@H]1C[C@@H]2CN1C(=O)[C@H](C(C)(C)C)NC(=O)O[C@]1(C)C[C@H]1CCCCCc1cccc3c1CN(C3)C(=O)O2)C(=O)NS(=O)(=O)C1CC1 [Example I-6, (1aR,5S,8S,10R,23aR)-5-tert-butyl-N-{(1R,2S)-1-[(cyclopropylsulfonyl)carbamoyl]-2-ethenylcyclopropyl}-1a-methyl-3,6,12-trioxo-1a,3,4,5,6,9,10, 14,19,20,21,22,23,23a-tetradecahydro-1H,8H-7,10:13,15-dimethano cyclopropa [n][4,13,2,8,11] benzodioxatriaza cyclodocosine-8(12H)-carboxamide] | 0.02 nM | 0.3 nM | 2.9 nM | 3 nM | 54 nM
CC[C@@H]1C[C@]1(NC(=O)[C@@H]1C[C@@H]2CN1C(=O)[C@H](C(C)(C)C)NC(=O)O[C@]1(C)C[C@H]1CCCCCc1cccc3c1CN(C3)C(=O)O2)C(=O)NS(=O)(=O)C1CC1 [Example I-7, (1aR,5S,8S,10R,23aR)-5-tert-butyl-N-{(1R,2R)-1-[(cyclopropylsulfonyl)carbamoyl]-2-ethylcyclopropyl}-1a-methyl-3,6,12-trioxo-1a,3,4,5,6,9,10,14,19, 20,21,22,23,23a-tetradecahydro-1H,8H-7,10:13,15-dimethano cyclopropa[n][4,13,2,8, 11]benzodioxatriaza cyclodocosine-8(12H)-carboxamide] | 0.02 nM | 2.2 nM | 8.7 nM | 4 nM | 27 nM
C=C[C@@H]1C[C@]1(NC(=O)[C@@H]1C[C@@H]2CN1C(=O)[C@H](C1CCCC1)NC(=O)O[C@@]1(C)C[C@@H]1CC/C=C/Cn1c(nc3cc(Cl)ccc3c1=O)O2)C(=O)NS(=O)(=O)C1CC1 [Example I-25, (1aS,5S,8S,10R,20E,23aS)-14-chloro-5-cyclopentyl-N-{(1R,2S)-1-[(cyclopropylsulfonyl)carbamoyl]-2-ethenylcyclopropyl}-1a-methyl-3,6,17-trioxo-1,1a,3,4,5,6,9, 10,19,22,23,23a-dodecahydro-8H,17H-7,10-methanocyclo propa[18,19][1,10,3,6, 12]dioxatriazacyclo nonadecino[11,12-b]quinazoline-8-carboxamide] | 0.2 nM | 142 nM | 41 nM | – | –
